Measured values reported in patent US11529394B2, “Polypeptide conjugates and methods of uses” (BEIJING QL BIOPHARMACEUTICAL CO., LTD., priority 2020, dated 2022).

Legend:
[1] = Body weight loss in C57 lean mice after single subcutaneous dose; type: in vivo, C57BL/6 mice
Method: Method: 10 week old male C57BL/6 mice were injected subcutaneously with protein once on Day 1. Body weight was measured daily and five animals were used for each treatment group. […] The area under the curve for body weight loss (%) from 0 until 8 days (AUC ΔBW 0-8d) was calculated.

[2] = tested on: db/db mice; assay: Non-fasting glucose in db/db mice after single subcutaneous dose; type: in vivo; conditions: non-fasting delta blood glucose
Method: Method: 10 weeks old male db/db mice were injected subcutaneously with protein once. […] Delta blood glucose is glucose subtracted by baseline level. […] The area under the curve for delta blood glucose from 0 until 192 hours (AUCΔBG 0-192 h) was calculated.

[3] = biological target: human serum albumin (Homo sapiens, UniProt P02768); assay: Human serum albumin binding by surface plasmon resonance (Biacore 8K); conditions: human serum albumin on CM5 chip, SPR
Method: Method: Binding of molecules to serum albumin was characterized by surface plastron resonance in a Biacore 8K instrument, Serum albumin from different species was covalently bound to CM5 sensor chips surface until 4000 RU was reached. The chip was blocked by 1M ethanolamine with flowrate of 10 μL/min for 420 s, Each molecule sample was diluted and injected at a flow rate of 30 μL/min to allow for binding to chip-bound albumin for 120 s and for dissociation for 300 s. Binding buffer without molecule was sent over the chip at the flow rate of 20 seconds to allow spontaneous dissociation of bound molecule for 30 seconds.

[4] = biological target: GLP-1 receptor (Homo sapiens, UniProt P43220); conditions: cited from earlier work
[5] = endogenous GLP-1; cited from earlier work

Chain of human serum albumin (P02768 25-609): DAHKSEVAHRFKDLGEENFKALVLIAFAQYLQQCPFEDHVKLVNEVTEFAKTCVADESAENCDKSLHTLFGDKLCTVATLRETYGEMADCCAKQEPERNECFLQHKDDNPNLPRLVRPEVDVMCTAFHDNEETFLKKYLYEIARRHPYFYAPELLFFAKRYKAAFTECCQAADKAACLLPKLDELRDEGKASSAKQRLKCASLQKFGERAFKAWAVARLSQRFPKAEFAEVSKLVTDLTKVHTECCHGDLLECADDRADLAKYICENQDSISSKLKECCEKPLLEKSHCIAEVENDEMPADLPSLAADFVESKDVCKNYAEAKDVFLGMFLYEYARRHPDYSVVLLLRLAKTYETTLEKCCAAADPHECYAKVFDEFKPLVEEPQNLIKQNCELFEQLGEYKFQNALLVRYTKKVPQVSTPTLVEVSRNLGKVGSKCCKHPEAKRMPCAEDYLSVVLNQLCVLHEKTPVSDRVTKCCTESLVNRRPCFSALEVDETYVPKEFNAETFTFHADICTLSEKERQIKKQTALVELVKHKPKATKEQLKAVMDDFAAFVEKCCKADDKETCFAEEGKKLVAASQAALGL
Chain of GLP-1 receptor (P43220 24-463, species assumed): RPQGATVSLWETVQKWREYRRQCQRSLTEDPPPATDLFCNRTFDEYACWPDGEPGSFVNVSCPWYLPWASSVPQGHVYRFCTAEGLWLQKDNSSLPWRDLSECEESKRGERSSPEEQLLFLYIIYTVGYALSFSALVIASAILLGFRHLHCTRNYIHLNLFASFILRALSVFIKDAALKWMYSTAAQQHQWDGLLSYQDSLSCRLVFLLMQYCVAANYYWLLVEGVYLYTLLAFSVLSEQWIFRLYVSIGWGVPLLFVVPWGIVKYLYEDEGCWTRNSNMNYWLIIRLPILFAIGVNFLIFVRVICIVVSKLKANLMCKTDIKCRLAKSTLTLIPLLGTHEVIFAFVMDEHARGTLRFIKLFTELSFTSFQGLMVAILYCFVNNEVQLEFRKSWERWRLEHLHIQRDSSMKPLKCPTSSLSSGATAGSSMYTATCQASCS

Substance	AUC ΔBW 0-8 d ([1]; Study 1 (FIG. 1A and 1B), 3 nmol/kg s.c. once) [day* %]	AUC ΔBW 0-8 d ([1]; Study 1 (FIG. 1A and 1B), 10 nmol/kg s.c. once) [day* %]	AUC ΔBW 0-8 d ([1]; Study 1 (FIG. 1A and 1B), 30 nmol/kg s.c. once) [day* %]	AUC ΔBW 0-8 d ([1]; Study 2 (FIG. 1C), 30 nmol/kg s.c. once) [day* %]	AUC ΔBW 0-8 d ([1]; Study 3 (FIG. 1D), 30 nmol/kg s.c. once) [day* %]	AUC ΔBG 0-192 h ([2]; 3 nmol/kg s.c. once) [mmol·h/L]	AUC ΔBG 0-192 h ([2]; 10 nmol/kg s.c. once) [mmol·h/L]	AUC ΔBG 0-192 h ([2]; 30 nmol/kg s.c. once) [mmol·h/L]	Rmax [3] [RU]	loss in GLP-1 receptor binding in presence of human serum albumin (HSA) relative to unconjugated counterpart [4] [fold]	half-life [5]
semaglutide [reference compound]	−0.6	−11.1	−12.7	−9.3	−13.2	-317.0	-583.4	-527.1	55.2	939	–
GLP-1: endogenous Glucagon-Like Peptide-1, 30 or 31 amino acid peptide fragment (7-36 or 7-37)	–	–	–	–	–	–	–	–	–	–	approximately 2 minutes
